Laboratory results published in ChEMBL document CHEMBL1151120, “Plant antimutagenic agents, 3. Coumarins” (J Nat Prod, 1988).

Columns and labels:
Type in all cases: functional, Salmonella enterica subsp. enterica serovar Typhimurium, T98
Salmonella typhimurium [1] = test: Antimutagenic activity in Salmonella Typhimurium […] assessed as inhibition of 2-aminoanthracene-induced mutation at 600 ug/plate after 72 hrs in presence of Ames S-9 fraction
Salmonella typhimurium [2] = test: Antimutagenic activity in Salmonella Typhimurium […] assessed as inhibition of 2-aminoanthracene-induced mutation at 300 ug/plate after 72 hrs in presence of Ames S-9 fraction
Salmonella typhimurium [3] = test: Antimutagenic activity in Salmonella Typhimurium […] assessed as inhibition of 2-aminoanthracene-induced mutation at 150 ug/plate after 72 hrs in presence of Ames S-9 fraction
Salmonella typhimurium [4] = test: Antimutagenic activity in Salmonella Typhimurium […] assessed as inhibition of acetylaminofluorene-induced mutation at 600 ug/plate after 72 hrs in presence of Ames S-9 fraction
Salmonella typhimurium [5] = test: Antimutagenic activity in Salmonella Typhimurium […] assessed as inhibition of acetylaminofluorene-induced mutation at 300 ug/plate after 72 hrs in presence of Ames S-9 fraction
Salmonella typhimurium [6] = test: Antimutagenic activity in Salmonella Typhimurium […] assessed as inhibition of acetylaminofluorene-induced mutation at 150 ug/plate after 72 hrs in presence of Ames S-9 fraction
Salmonella typhimurium [7] = test: Antimutagenic activity in Salmonella Typhimurium […] assessed as inhibition of benzo[a]pyrene-induced mutation at 600 ug/plate after 72 hrs in presence of Ames S-9 fraction
Salmonella typhimurium [8] = test: Antimutagenic activity in Salmonella Typhimurium […] assessed as inhibition of benzo[a]pyrene-induced mutation at 300 ug/plate after 72 hrs in presence of Ames S-9 fraction
Salmonella typhimurium [9] = test: Antimutagenic activity in Salmonella Typhimurium […] assessed as inhibition of benzo[a]pyrene-induced mutation at 150 ug/plate after 72 hrs in presence of Ames S-9 fraction
Salmonella typhimurium [10] = test: Antimutagenic activity in Salmonella Typhimurium […] assessed as inhibition of 2-nitroflorene-induced mutation at 600 ug/plate after 72 hrs
Salmonella typhimurium [11] = test: Antimutagenic activity in Salmonella Typhimurium […] assessed as inhibition of 2-nitroflorene-induced mutation at 300 ug/plate after 72 hrs
Salmonella typhimurium [12] = test: Antimutagenic activity in Salmonella Typhimurium […] assessed as inhibition of 2-nitroflorene-induced mutation at 150 ug/plate after 72 hrs

`O=c1ccc2ccccc2o1` [COUMARIN] was tested, and the “inhibition (INH)” value (Salmonella typhimurium [1]) was 22%, the “inhibition (INH)” value (Salmonella typhimurium [2]) was 0% and the “inhibition (INH)” value (Salmonella typhimurium [3]) was 0%. The “inhibition (INH)” value (Salmonella typhimurium [4]) was 36%, the “inhibition (INH)” value (Salmonella typhimurium [5]) was 28% and the “inhibition (INH)” value (Salmonella typhimurium [6]) was 5%. The “inhibition (INH)” value (Salmonella typhimurium [7]) was 53%, the “inhibition (INH)” value (Salmonella typhimurium [8]) was 16% and the “inhibition (INH)” value (Salmonella typhimurium [9]) was 10%. For the same compound, the “inhibition (INH)” value (Salmonella typhimurium [10]) was 73%, the “inhibition (INH)” value (Salmonella typhimurium [11]) was 17% and the “inhibition (INH)” value (Salmonella typhimurium [12]) was 24%.
In the case of `O=c1ccc2ccc(O)cc2o1` [UMBELLIFERONE], the “inhibition (INH)” value (Salmonella typhimurium [1]) is reported as 14%.
In the case of `CC(C)=CCOc1c2occc2cc2ccc(=O)oc12` [PENTOSALEN], the “inhibition (INH)” value (Salmonella typhimurium [1]) is reported as 81%, the “inhibition (INH)” value (Salmonella typhimurium [2]) is reported as 0% and the “inhibition (INH)” value (Salmonella typhimurium [3]) is reported as 0%. The “inhibition (INH)” value (Salmonella typhimurium [5]) was 56%, the “inhibition (INH)” value (Salmonella typhimurium [6]) was 35% and the “inhibition (INH)” value (Salmonella typhimurium [7]) was 90%. The “inhibition (INH)” value (Salmonella typhimurium [8]) was 87%, the “inhibition (INH)” value (Salmonella typhimurium [9]) was 86% and the “inhibition (INH)” value (Salmonella typhimurium [10]) was 58%. For the same compound, the “inhibition (INH)” value (Salmonella typhimurium [11]) was 43% and the “inhibition (INH)” value (Salmonella typhimurium [12]) was 22%.
In the case of `O=c1ccc2cc3ccoc3cc2o1` [PSORALEN], the “inhibition (INH)” value (Salmonella typhimurium [1]) is reported as 60%.
In the case of `COc1ccc2ccc(=O)oc2c1CC=C(C)C` [OSTHOLE], the “inhibition (INH)” value (Salmonella typhimurium [1]) is reported as 68%, the “inhibition (INH)” value (Salmonella typhimurium [2]) is reported as 0% and the “inhibition (INH)” value (Salmonella typhimurium [3]) is reported as 0%. For the same compound, the “inhibition (INH)” value (Salmonella typhimurium [4]) was 74%, the “inhibition (INH)” value (Salmonella typhimurium [5]) was 56% and the “inhibition (INH)” value (Salmonella typhimurium [6]) was 51%. For the same compound, the “inhibition (INH)” value (Salmonella typhimurium [7]) was 54%, the “inhibition (INH)” value (Salmonella typhimurium [8]) was 49% and the “inhibition (INH)” value (Salmonella typhimurium [9]) was 13%. For the same compound, the “inhibition (INH)” value (Salmonella typhimurium [10]) was 80%, the “inhibition (INH)” value (Salmonella typhimurium [11]) was 55% and the “inhibition (INH)” value (Salmonella typhimurium [12]) was 29%.
With `COc1c2occc2cc2ccc(=O)oc12` [METHOXSALEN] the “inhibition (INH)” value (Salmonella typhimurium [1]) was 44%, the “inhibition (INH)” value (Salmonella typhimurium [2]) was 0% and the “inhibition (INH)” value (Salmonella typhimurium [3]) was 0%. For the same compound, the “inhibition (INH)” value (Salmonella typhimurium [4]) was 39%, the “inhibition (INH)” value (Salmonella typhimurium [5]) was 21% and the “inhibition (INH)” value (Salmonella typhimurium [6]) was 0%. The “inhibition (INH)” value (Salmonella typhimurium [7]) was 86%, the “inhibition (INH)” value (Salmonella typhimurium [8]) was 76% and the “inhibition (INH)” value (Salmonella typhimurium [9]) was 58%. The “inhibition (INH)” value (Salmonella typhimurium [10]) was 25%, the “inhibition (INH)” value (Salmonella typhimurium [11]) was 39% and the “inhibition (INH)” value (Salmonella typhimurium [12]) was 5%.
`COc1c2ccoc2cc2oc(=O)ccc12` [BERGAPTEN] was tested, and the “inhibition (INH)” value (Salmonella typhimurium [1]) was 23%, the “inhibition (INH)” value (Salmonella typhimurium [2]) was 0% and the “inhibition (INH)” value (Salmonella typhimurium [3]) was 0%. For the same compound, the “inhibition (INH)” value (Salmonella typhimurium [4]) was 0%, the “inhibition (INH)” value (Salmonella typhimurium [5]) was 0% and the “inhibition (INH)” value (Salmonella typhimurium [6]) was 0%. For the same compound, the “inhibition (INH)” value (Salmonella typhimurium [7]) was 75%, the “inhibition (INH)” value (Salmonella typhimurium [8]) was 67% and the “inhibition (INH)” value (Salmonella typhimurium [9]) was 61%. The “inhibition (INH)” value (Salmonella typhimurium [10]) was 40%, the “inhibition (INH)” value (Salmonella typhimurium [11]) was 41% and the “inhibition (INH)” value (Salmonella typhimurium [12]) was 27%.
